According to patent US12152017B2, “Ketoamide compound and preparation method, pharmaceutical composition, and use thereof” (Shanghai Institute of Materia Medica, Chinese Academy of …, priority 2018, dated 2024):
Several values for one entry are separate records, joined by “and”; a condition that tells them apart may be missing. Equal values may be shown once. Read-outs that look alike come from different tables or passages of the source.

Key:
MERS-CoV pseudovirus = assay: microbe, parasite or virus in culture; assay type: cell-based; conditions: Middle East respiratory syndrome-related coronavirus, Huh-7, read-out: MERS-CoV pseudovirus inhibitory activity IC50
[1] = Pharmacokinetic study in CD-1 mice (gavage, intravenous, intraperitoneal); assay type: in vivo; conditions: 20 mg/kg; for Cmax / Tmax / half-life / AUC(0-inf) / AUC(0-t) / MRT inf: male, CD-1, mouse, plasma; for AUC(0-inf): read-out: AUC INF_obs; for MRT inf: read-out: MRT INF_obs
Experimental: Nine CD-1 mice, male, weighing 18-22 g, were randomly divided into 3 groups with 3 mice in each group. The test compounds were administered by gavage, intravenously and intraperitoneally according to the following schemes.
Before the test, they were fasted for 12 hours and were allowed to drink water freely, and were fed uniformly 2 h after administration.
There were 3 animals at each time point.
The solution for gavage administration was formulated with DMSO/0.5% HPMC (5/95, v/v) into the final concentration. Intravenous and intraperitoneal administration were formulated with DMSO/PEG300/EtOH/NaCl (5/40/5/50, v/v/v). Retention samples of the dosing solution (50 μL of the drug solution was taken and mixed well with 50 μL of DMSO before and after the administration) for testing.
The drug was administered according to the above dosage, the time of administration were recorded, and 20 μL of blood was collected from the mouse femoral plexus at the above set time point and placed in a heparinized test tube and centrifuged immediately at 11000 rpm for 5 min. 10 μL of plasma was immediately and accurately drawn into a centrifuge tube pre-filled with 100 μL of PK-IS solution (prepared with methanol:acetonitrile (1:1, v/v)), mixed well, and frozen to store at −20° C. for testing.

[2] = i.p. (20 mg/Kg per Table 3), individual animal
[3] = ip, i.p. (20 mg/Kg per Table 3), Mean of 3 mice
[4] = ip, i.p. (20 mg/Kg per Table 3), Mean of 3 mice, read-out: AUC last (exposure for intraperitoneal injection)
[5] = ip, i.p. (20 mg/Kg per Table 3), individual animal
[6] = ip, i.p. (20 mg/Kg per Table 3), individual animal, read-out: AUC last
[7] = po, p.o. (gavage 20 mg/Kg per Table 3), Mean of 3 mice
[8] = po, p.o. (gavage 20 mg/Kg per Table 3), Mean of 3 mice, read-out: AUC last (oral exposure)
[9] = po, p.o. (gavage 20 mg/Kg per Table 3), individual animal
[10] = p.o. (gavage 20 mg/Kg per Table 3), individual animal
[11] = po, p.o. (gavage 20 mg/Kg per Table 3), individual animal, read-out: AUC last

| Structure (SMILES) | IC50 (MERS-CoV pseudovirus) | AUC INF_obs [1, 2] | AUC last [1, 2] | C max [1, 2] | MRT INF_obs [1, 2] | T1/2 [1, 2] | Cmax [1, 3] | Tmax [1, 3] | half-life [1, 3] | AUC(0-inf) [1, 3] | MRT inf [1, 3] | Cmax [1, 5] | half-life [1, 5] | AUC(0-inf) [1, 5] | AUC(0-t) [1, 6] | Cmax [1, 7] | Tmax [1, 7] | half-life [1, 7] | AUC(0-inf) [1, 7] | AUC(0-t) [1, 8] | also measured |
| --- | --- | --- | --- | --- | --- | --- | --- | --- | --- | --- | --- | --- | --- | --- | --- | --- | --- | --- | --- | --- | --- |
| O=C(NCc1ccccc1)C(=O)[C@H](C[C@@H]1CCNC1=O)NC(=O)[C@H](CC1CCCCC1)NC(=O)c1cc2ccccc2o1 [Example A9, N—((S)-1-(((S)-4-(benzylamino)-3,4-dione-1-((S)-2-oxopyrrolidine-3-yl)but-2-yl)amino)-3-cyclohexyl-1-oxopropan-2-yl)-benzofuran-2-carboxamide] | 1 ± 0.7 nM | 6825 ng·h/mL and 10574 ng·h/mL | 6786 ng·h/mL and 10138 ng·h/mL | 2859 ng/mL and 2364 ng/mL | 2.70 h and 3.19 h and 6.07 h | 3.67 h and 5.11 h | 2910 ng/mL | 0.42 h | 4.02 h | 8360 ng·h/mL | 3.99 h | 3520 ng/mL | 3.28 h | 7670 ng·h/mL | 7650 ng·h/mL | 498 ng/mL | 0.25 h | 1.27 h | 589 ng·h/mL | 584 ng·h/mL | T max [1, 2]: 0.75 h; AUC(0-t) [1, 4]: 8190 ng·h/mL; MRT inf [1, 7]: 1.77 h; Tmax [1, 9]: 0.25 h; half-life [1, 9]: 1.13 h; MRT inf [1, 9]: 1.35 h; AUC INF_obs [1, 10]: 451 ng·h/mL and 1146 ng·h/mL and 171 ng·h/mL; AUC last [1, 10]: 447 ng·h/mL and 1143 ng·h/mL and 163 ng·h/mL; C max [1, 10]: 546 ng/mL and 864 ng/mL and 84 ng/mL; MRT INF_obs [1, 10]: 1.33 h and 2.63 h; T1/2 [1, 10]: 0.91 h and 1.77 h |
| O=C(NCc1ccccc1)C(=O)[C@H](C[C@@H]1CCNC1=O)NC(=O)[C@H](CC1CCCCC1)NC(=O)c1ccc2ccccc2n1 [Example A42, N—((S)-1-(((S)-4-(benzylamino)-3,4-dione-1-((S)-2-oxopyrrolidine-3-yl)but-2-yl)amino)-3-cyclohexyl-1-oxopropan-2-yl)-quinoline-2-carboxamide] | 3.2 ± 0.6 nM | 10647 ng·h/mL and 11768 ng·h/mL | 10576 ng·h/mL and 11340 ng·h/mL | 3959 ng/mL and 5038 ng/mL | 3.41 h and 4.99 h | 3.67 h and 6.20 h | 4280 ng/mL | 0.25 h | 5.46 h | 12000 ng·h/mL | 4.93 h | 3840 ng/mL | 6.52 h | 13700 ng·h/mL | 13000 ng·h/mL | 858 ng/mL | 0.25 h | 5.81 h | 750 ng·h/mL | 742 ng·h/mL | Tmax [1, 5]: 0.25 h; MRT inf [1, 5]: 6.38 h; MRT inf [1, 7]: 2.3 h; Cmax [1, 9]: 1020 ng/mL; Tmax [1, 9]: 0.25 h; half-life [1, 9]: 4.19 h; AUC(0-inf) [1, 9]: 791 ng·h/mL; AUC(0-t) [1, 11]: 787 ng·h/mL; MRT inf [1, 9]: 1.98 h; AUC INF_obs [1, 10]: 953 ng·h/mL and 506 ng·h/mL; AUC last [1, 10]: 945 ng·h/mL and 494 ng·h/mL; C max [1, 10]: 966 ng/mL and 588 ng/mL; MRT INF_obs [1, 10]: 2.10 h and 2.83 h; T1/2 [1, 10]: 5.52 h and 7.73 h |
| Cc1cnc(C(=O)N[C@@H](CC2CCCCC2)C(=O)N[C@@H](C[C@@H]2CCCNC2=O)C(=O)C(=O)NCc2ccccc2)o1 [Example A241] | 2.5 ± 1.3 nM | 3524 ng·h/mL and 4121 ng·h/mL | 3514 ng·h/mL and 4100 ng·h/mL | 4206 ng/mL and 4836 ng/mL | 1.37 h and 1.50 h | 3.59 h and 4.72 h | 4660 ng/mL | 0.18 h | 4.36 h | 4180 ng·h/mL | 1.44 h | 4930 ng/mL | 4.78 h | 4900 ng·h/mL | 4870 ng·h/mL | 767 ng/mL | 0.25 h | 4.22 h | 665 ng·h/mL | 663 ng·h/mL | T max [1, 2]: 0.05 h; AUC(0-t) [1, 4]: 4160 ng·h/mL; MRT inf [1, 5]: 1.44 h; MRT inf [1, 7]: 1.82 h; Cmax [1, 9]: 707 ng/mL; Tmax [1, 9]: 0.25 h; half-life [1, 9]: 3.84 h; MRT inf [1, 9]: 2.12 h; AUC INF_obs [1, 10]: 469 ng·h/mL and 947 ng·h/mL and 579 ng·h/mL; AUC last [1, 10]: 467 ng·h/mL and 945 ng·h/mL and 576 ng·h/mL; C max [1, 10]: 942 ng/mL and 651 ng/mL; MRT INF_obs [1, 10]: 1.68 h and 1.64 h; T1/2 [1, 10]: 3.85 h and 4.96 h |
| Cc1cnc(C(=O)N[C@@H](CC2CCCCC2)C(=O)N[C@@H](C[C@@H]2CCNC2=O)C(=O)C(=O)NCc2ccccc2)o1 [Example A242, N—((S)-1-(((S)-4-(benzylamino)-3,4-dione-1-((S)-2-oxopyrrolidine-3-yl)but-2-yl)amino)-3-cyclohexyl-1-oxopropan-2-yl)-5-methyloxazole-2-carboxamide] | 2.2 ± 0.8 nM | 5808 ng·h/mL and 6750 ng·h/mL | 5779 ng·h/mL and 6628 ng·h/mL | 4739 ng/mL and 5334 ng/mL | 1.85 h and 2.45 h | 4.37 h and 6.75 h | 5490 ng/mL | 0.25 h | 5.32 h | 6960 ng·h/mL | 2.07 h | 6400 ng/mL | 4.85 h | 8320 ng·h/mL | 8260 ng·h/mL | 409 ng/mL | 0.25 h | 4.51 h | 493 ng·h/mL | 488 ng·h/mL | AUC(0-t) [1, 4]: 6890 ng·h/mL; Tmax [1, 5]: 0.25 h; MRT inf [1, 5]: 1.92 h; MRT inf [1, 7]: 2.56 h; Tmax [1, 9]: 0.25 h; half-life [1, 9]: 4 h; AUC(0-inf) [1, 9]: 436 ng·h/mL; AUC(0-t) [1, 11]: 434 ng·h/mL; MRT inf [1, 9]: 2.13 h; AUC INF_obs [1, 10]: 413 ng·h/mL and 629 ng·h/mL; AUC last [1, 10]: 409 ng·h/mL and 622 ng·h/mL; C max [1, 10]: 499 ng/mL and 247 ng/mL and 482 ng/mL; MRT INF_obs [1, 10]: 2.84 h and 2.71 h; T1/2 [1, 10]: 4.63 h and 4.91 h |
| Cc1c(C(=O)NC(CC2CCCCC2)C(=O)N[C@@H](C[C@@H]2CCCNC2=O)C(=O)C(=O)NCc2ccccc2)oc2ccccc12 (some centres unmarked) [Example A246] | 10.8 ± 10 nM |  |  |  |  |  |  |  |  |  |  |  |  |  |  |  |  |  |  |  |  |
| Cc1ccc2oc(C(=O)NC(CC3CCCCC3)C(=O)N[C@@H](C[C@@H]3CCCNC3=O)C(=O)C(=O)NCc3ccccc3)c(C)c2c1 (some centres unmarked) [Example A247] | 1.7 ± 0.4 nM |  |  |  |  |  |  |  |  |  |  |  |  |  |  |  |  |  |  |  |  |
| COc1ccc(OC)c2oc(C(=O)NC(CC3CCCCC3)C(=O)N[C@@H](C[C@@H]3CCCNC3=O)C(=O)C(=O)NCc3ccccc3)cc12 (some centres unmarked) [Example A248] | 8.4 ± 1.7 nM |  |  |  |  |  |  |  |  |  |  |  |  |  |  |  |  |  |  |  |  |
| O=C(NCc1ccccc1)C(=O)[C@H](C[C@@H]1CCCNC1=O)NC(=O)C(CC1CCCCC1)NC(=O)c1coc2ccccc12 (some centres unmarked) [Example A249] | 0.6 ± 0.2 nM |  |  |  |  |  |  |  |  |  |  |  |  |  |  |  |  |  |  |  |  |
| O=C(NCc1ccccc1)C(=O)[C@H](C[C@@H]1CCCNC1=O)NC(=O)C(CC1CCCCC1)NC(=O)C1=Cc2cc(Cl)ccc2OC1 (some centres unmarked) [Example A250] | 0.7 ± 0.1 nM |  |  |  |  |  |  |  |  |  |  |  |  |  |  |  |  |  |  |  |  |
